Data set [1] can be described thus: Mouse, tail clip (analgetic). It counts as in vivo. The note with it: oral. An excerpt: ^1 Bianchi, et al., Brit. J. of Pharmacology 9, 280 (1954).
Data set [2] is described as follows: Inhibition of pernicious preening in mice (antipsychotic or analgetic). Type of data set: in vivo. To be noted: Mus musculus, oral, read-out: ED50, inhibition of pernicious preening (anti psychotic or analgetic). An excerpt: Inhibition of pernicious
psychotic or analgetic)^6
^6 Wilfon, et al., Federation Proceedings 19, 21 (1960).

Data set [3] is described as follows: CNS depression in mice: antagonism of foot shock induced aggression. Type of data set: in vivo. The note with it: Mus musculus, oral. The source says: Antagonism of foot shock
^5 Tedeschi, et al., J. Pharmacol. & Exptl. Ther. 125, 28 (1959).

Data set [4] is described as follows: Lethal toxicity (ALD50) and first signs of pharmacologic activity (ATD50) in mice. To be noted: mouse, in vivo, oral, groups of 10, given as part of ALD50/ATD50 ratio; for TD50: read-out: ATD50 (dose at which signs of pharmacologic activity are first evidenced). On the procedure:
In groups of 10 mice treated variously with geometrically increasing doses of test compound of from 125 mg./kg. to 2,000 mg./kg., the lethal toxicity (ALD50) and the dose at which signs of pharmacologic activity are first evidenced (ATD50) can be estimated. […] The ALD50 /ATD50 ratio (mg. per kg. body wt./mg. per kg. body wt.) for the compound of Procedure 4 is 2,000/125-250 and for that of Procedure 6 is >2,000/8-15.7. The ratio for trazodone is 940/2-4. Thus, the present substances have less than one-half the lethal toxicity of trazodone and from less than one-half to one-fiftieth the propensity for producing overt signs of physiological effect (ATD50) on oral administration to mice. More particularly, the present substances exert less of a depressant effect on the central nervous system as reflected by less deficit in motor coordination, less interference with normal motor activity, and less analgetic effect than trazodone. Laboratory test data with respect to these properties are arranged below.

Data set [5] can be described thus: Suppression of conditioned avoidance response. It counts as in vivo. To be noted: oral; for suppression of conditioned avoidance response, activity in words: at 100 mg/kg. The source says: |Suppression of conditioned |avoidance response | ^7 Albert, et al., Pharmacologist 4, 152 (1962).
The nature of data set [6]: Prevention of reserpine ptosis in mice (oral pretreatment). Type of data set: in vivo. The note with it: Mus musculus, test drug oral (per os) before reserpine 2.0 mg./kg. intravenously.
The nature of data set [7]: Rotorod method for motor incordination in mice. Type of data set: in vivo. The note with it: oral. The source says:
Rotorod method for motor
^4 Kinnaird, et al., J. Pharmacol. & Exptl.
Cutting, et al., Archives Int. Pharmacodyn.

Data set [8] is described as follows: Reduction of phenylquinone writhing in mice (analgetic). Type of data set: in vivo. To be noted: Mus musculus, oral. An excerpt:
Reduction of phenylquinone
^2 Hendershot, et al., J. Pharmcol. & Exptl. Ther. 125, 237 (1959).

Data set [9] can be described thus: Reduction of spontaneous motor activity in mice. Type of data set: in vivo. To be noted: oral.
For data set [10] the following is noted: clinical use, vs imipramine; cited from earlier work.
For data set [11] the following is noted: various animal tests, U.S. Pat. No. 3,381,009; cited from earlier work.

SMILES strings stand for the structures.

With `O=c1n(CCCN2CCN(c3cccc(Cl)c3)CC2)nc2ccc3ccccc3n12` [Procedure 4, 2-[3-[4-(3-Chlorophenyl)-1-piperazinyl]propyl]-1,2,4-triazolo[4,3-a]quinolin-3(2H)-one], the ED50 was found to be 200 mg/kg in data set [1]; 24 mg/kg in data set [2]; 54 mg/kg in data set [3]; 29 mg/kg in [6]; 40.5 mg/kg in [8]. Moreover, the median lethal dose (LD50) in [4] turned out to be 2000 mg/kg. In [4], the TD50 fell in the range of 125 to 250 mg/kg. Further, in data set [5], the “suppression of conditioned avoidance response, activity in words” value was “inactive”. Also, the “Rotorod method for motor incordination, activity in words” value in data set [7] (at 800 (mg./kg.)) is “inactive”. In data set [9], the “AED-0.3, reduction of spontaneous motor activity” value is 80 mg/kg.

As to `Cc1cc2nn(CCCN3CCN(c4cccc(Cl)c4)CC3)c(=O)n2c2ccccc12` [Procedure 6], the “tail clip (analgetic), activity in words” value in [1] (at 200 (mg./kg.)) is “inactive”. Moreover, the median effective dose (ED50) in data set [2] worked out at 62 mg/kg; in [3], 36.5 mg/kg; in [6], 27 mg/kg; in [8], 51.8 mg/kg. Besides, the LD50 in [4] was greater than 2000 mg/kg. In [4], the TD50 lay within 8 to 15.7 mg/kg. In addition, the “suppression of conditioned avoidance response, activity in words” value in data set [5] is “inactive”. For the same molecule, in data set [9] (at 20, 40, & 80 (mg./kg.)), the “reduction of spontaneous motor activity, activity in words” value is “inactive”.

In the case of `O=c1n(CCCN2CCN(c3cccc(Cl)c3)CC2)nc2ccccn12` [trazodone, 2-[3-[4-(3-chlorophenyl)-1-piperazinyl]propyl]-1,2,4-triazolo[4,3-a]pyridin-3(2H)-one, reference compound], the ED50 in [1] amounted to 55.5 mg/kg; in data set [2], 43 mg/kg; in data set [3] it was 22.2 mg/kg; in data set [5], 131 mg/kg; in data set [6], 36 mg/kg; in [8] it was 21.8 mg/kg. Further, the “clinical antidepressant effectiveness and side effects” value in [10] is “antidepressant equivalent in effectiveness to imipramine but with fewer side effects”. Moreover, the 50% lethal dose (LD50) in data set [4] was 940 mg/kg. The TD50 in data set [4] was 2 to 4 mg/kg; in data set [7] (mouse, in vivo, read-out: ED50, Rotorod method for motor incordination), 44.4 mg/kg. Also, the “AED-0.3, reduction of spontaneous motor activity” value in data set [9] amounted to 15.3 mg/kg. Moreover, in [11], the pharmacological actions entry was “tranquilizing action, hypotensive action, and analgesic action”.

(Values after US4252806A, “Triazoloquinolones” (Mead Johnson & Company, priority 1979, dated 1981).)
